# Measurements: PMC10026764, “Overcoming the imatinib-resistant BCR-ABL mutants with new ureidobenzothiazole chemotypes endowed with potent and broad-spectrum anticancer activity” (Journal of Enzyme Inhibition and Medicinal Chemistry, 2023)
# Where two headings read alike, the source gives them in different places.
# Legend:
# [1] = tested on: EKVX; test: NCI-60 five-dose SRB assay; type: cell-based; conditions: Homo sapiens, non-small cell lung cancer
# [2] = target: ABL^E255K (Homo sapiens, UniProt P00519, E255K); test: In vitro enzymatic activity, imatinib-resistant mutant panel
# [3] = target: DDR1 (Homo sapiens, UniProt Q08345); test: Kinase selectivity test against DDR1; type: biochemical
# DDR1, sequence (Q08345 19-913, species assumed): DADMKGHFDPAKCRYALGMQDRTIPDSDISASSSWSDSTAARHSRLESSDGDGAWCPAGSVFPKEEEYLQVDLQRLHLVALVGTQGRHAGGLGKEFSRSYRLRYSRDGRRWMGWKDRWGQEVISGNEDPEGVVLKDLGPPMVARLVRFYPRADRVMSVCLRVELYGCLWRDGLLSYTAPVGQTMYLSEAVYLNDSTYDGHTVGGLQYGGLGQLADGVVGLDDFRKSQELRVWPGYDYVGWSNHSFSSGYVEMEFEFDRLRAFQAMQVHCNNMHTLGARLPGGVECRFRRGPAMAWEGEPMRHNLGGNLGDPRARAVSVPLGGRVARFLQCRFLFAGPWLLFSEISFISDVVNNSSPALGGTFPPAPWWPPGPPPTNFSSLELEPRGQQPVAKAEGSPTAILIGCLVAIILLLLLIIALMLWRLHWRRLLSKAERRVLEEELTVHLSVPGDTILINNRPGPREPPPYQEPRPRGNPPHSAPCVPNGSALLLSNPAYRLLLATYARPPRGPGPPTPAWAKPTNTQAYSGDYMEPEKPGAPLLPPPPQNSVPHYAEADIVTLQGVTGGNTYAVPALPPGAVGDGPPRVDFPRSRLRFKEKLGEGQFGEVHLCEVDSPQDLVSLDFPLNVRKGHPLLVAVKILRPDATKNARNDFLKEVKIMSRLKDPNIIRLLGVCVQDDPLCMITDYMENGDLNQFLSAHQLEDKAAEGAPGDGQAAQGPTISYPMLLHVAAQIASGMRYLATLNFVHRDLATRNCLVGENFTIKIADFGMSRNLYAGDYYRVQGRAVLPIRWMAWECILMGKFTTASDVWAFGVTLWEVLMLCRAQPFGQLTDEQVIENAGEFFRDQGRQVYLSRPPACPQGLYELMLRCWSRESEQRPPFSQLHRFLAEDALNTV
# Procedure: On the other hand, to gain certain insights about the kinase selectivity of this array of ureidobenzothiazoles, compounds 2a and 2b were tested against DDR1 (Figure 4). Discoidin domain receptors (DDR1/2) are transmembrane receptor tyrosine kinases (RTKs), activated by fibrillar collagens. DDR1/2 and BCR-ABL share almost 61% sequence similarities in their ATP binding domains. […] This observation points out the merit of these ureidobenzothiazoles over the known BCR-ABL inhibitors in achieving exceptional selectivity towards BCR-ABL.
# [4] = target: ABL^M351T (Homo sapiens, UniProt P00519, M351T); test: In vitro enzymatic activity, imatinib-resistant mutant panel; type: biochemical
# [5] = tested on: CAKI-1; test: NCI-60 five-dose SRB assay; type: cell-based; conditions: Homo sapiens; CAKI-1, renal cancer
# [6] = tested on: HOP-62; test: NCI-60 five-dose SRB assay; type: cell-based; conditions: Homo sapiens; HOP-62, non-small cell lung cancer
# [7] = tested on: A549/ATCC; set-up: method as in earlier work; conditions: imatinib mesylate NSC 743414, NCI data; cited from earlier work
# [8] = tested on: K-562; set-up: method as in earlier work; conditions: imatinib mesylate NSC 743414, NCI data; cited from earlier work
# [9] = tested on: SN12C; set-up: method as in earlier work; conditions: imatinib mesylate NSC 743414, NCI data; cited from earlier work
# [10] = tested on: UACC-257; set-up: method as in earlier work; conditions: imatinib mesylate NSC 743414, NCI data; cited from earlier work
# [11] = tested on: HCC-2998; set-up: method as in earlier work; conditions: imatinib mesylate NSC 743414, NCI data; cited from earlier work
# [12] = tested on: NCI-H522; set-up: method as in earlier work; conditions: imatinib mesylate NSC 743414, NCI data; cited from earlier work
# [13] = tested on: CCRF-CEM; set-up: method as in earlier work; conditions: imatinib mesylate NSC 743414, NCI data; cited from earlier work
# [14] = tested on: HCT-15; set-up: method as in earlier work; conditions: imatinib mesylate NSC 743414, NCI data; cited from earlier work
# [15] = tested on: COLO 205; set-up: method as in earlier work; conditions: imatinib mesylate NSC 743414, NCI data; cited from earlier work
# [16] = tested on: DU-145; set-up: method as in earlier work; conditions: imatinib mesylate NSC 743414, NCI data; cited from earlier work
# [17] = tested on: MALME-3M; set-up: method as in earlier work; conditions: imatinib mesylate NSC 743414, NCI data; cited from earlier work
# [18] = tested on: SF-295; set-up: method as in earlier work; conditions: imatinib mesylate NSC 743414, NCI data; cited from earlier work
# [19] = tested on: HOP-62; set-up: method as in earlier work; conditions: imatinib mesylate NSC 743414, NCI data; cited from earlier work
# [20] = tested on: UACC-62; set-up: method as in earlier work; conditions: imatinib mesylate NSC 743414, NCI data; cited from earlier work
# [21] = tested on: SK-MEL-28; set-up: method as in earlier work; conditions: imatinib mesylate NSC 743414, NCI data; cited from earlier work
# [22] = tested on: OVCAR-4; set-up: method as in earlier work; conditions: imatinib mesylate NSC 743414, NCI data; cited from earlier work
# [23] = tested on: MDA-MB-435; set-up: method as in earlier work; conditions: imatinib mesylate NSC 743414, NCI data; cited from earlier work
# [24] = tested on: A498; set-up: method as in earlier work; conditions: imatinib mesylate NSC 743414, NCI data; cited from earlier work
# [25] = tested on: NCI-H226; set-up: method as in earlier work; conditions: imatinib mesylate NSC 743414, NCI data; cited from earlier work
# [26] = tested on: RXF 393; set-up: method as in earlier work; conditions: imatinib mesylate NSC 743414, NCI data; cited from earlier work
# [27] = tested on: SK-OV-3; set-up: method as in earlier work; conditions: imatinib mesylate NSC 743414, NCI data; cited from earlier work
# [28] = tested on: OVCAR-3; set-up: method as in earlier work; conditions: imatinib mesylate NSC 743414, NCI data; cited from earlier work
# [29] = tested on: MCF7; set-up: method as in earlier work; conditions: imatinib mesylate NSC 743414, NCI data; cited from earlier work
# [30] = tested on: SNB-75; set-up: method as in earlier work; conditions: imatinib mesylate NSC 743414, NCI data; cited from earlier work
# [31] = tested on: 786-0; set-up: method as in earlier work; conditions: imatinib mesylate NSC 743414, NCI data; cited from earlier work
# [32] = tested on: ACHN; set-up: method as in earlier work; conditions: imatinib mesylate NSC 743414, NCI data; cited from earlier work
# [33] = tested on: MDA-MB-231; set-up: method as in earlier work; conditions: imatinib mesylate NSC 743414, NCI data; cited from earlier work
# [34] = tested on: SNB-19; set-up: method as in earlier work; conditions: imatinib mesylate NSC 743414, NCI data; cited from earlier work
# [35] = tested on: PC-3; set-up: method as in earlier work; conditions: imatinib mesylate NSC 743414, NCI data; cited from earlier work
# [36] = tested on: EKVX; set-up: method as in earlier work; conditions: imatinib mesylate NSC 743414, NCI data; cited from earlier work
# [37] = tested on: NCI 60-cell line panel; set-up: method as in earlier work; conditions: COLO205, HCC-2998, HCT-116 and HCT-15 colon cancer cells; cited from earlier work
# [38] = tested on: M14; set-up: method as in earlier work; conditions: imatinib mesylate NSC 743414, NCI data; cited from earlier work
# [39] = tested on: BT-549; set-up: method as in earlier work; conditions: imatinib mesylate NSC 743414, NCI data; cited from earlier work
# [40] = tested on: SR; set-up: method as in earlier work; conditions: imatinib mesylate NSC 743414, NCI data; cited from earlier work
# [41] = tested on: RPMI-8226; set-up: method as in earlier work; conditions: imatinib mesylate NSC 743414, NCI data; cited from earlier work
# [42] = tested on: OVCAR-5; set-up: method as in earlier work; conditions: imatinib mesylate NSC 743414, NCI data; cited from earlier work
# [43] = tested on: NCI-H23; set-up: method as in earlier work; conditions: imatinib mesylate NSC 743414, NCI data; cited from earlier work
# [44] = tested on: SK-MEL-2; set-up: method as in earlier work; conditions: imatinib mesylate NSC 743414, NCI data; cited from earlier work
compound,measurement,setting,value
CCN1CCN(c2ccc(NC(=O)Nc3nc4ccc(-c5ccccc5OC)cc4s3)cc2)CC1 [Compound 2b],GI50,[1],1.51 µM
same,IC50,[2],0.00247 µM
same,IC50,[3],0.199 µM
same,IC50,[4],0.00106 µM
COc1ccccc1-c1ccc2nc(NC(=O)Nc3cc(C(F)(F)F)cc(C(F)(F)F)c3)sc2c1 [Compound 2e],GI50,[5],2.33 µM
same,GI50,[6],2.1 µM
Cc1ccc(NC(=O)c2ccc(CN3CCN(C)CC3)cc2)cc1Nc1nccc(-c2cccnc2)n1 [Imatinib],GI50,[7],24.5 µM
same,GI50,[8],0.02 µM
same,GI50,[9],33.2 µM
same,GI50,[10],21.1 µM
same,GI50,[11],21.2 µM
same,GI50,[12],16.4 µM
same,GI50,[13],17 µM
same,GI50,[14],19.9 µM
same,GI50,[15],17.6 µM
same,GI50,[16],18.8 µM
same,GI50,[17],16.3 µM
same,GI50,[18],19.8 µM
same,GI50,[19],21.5 µM
same,GI50,[20],19 µM
same,GI50,[21],14.6 µM
same,GI50,[22],20 µM
same,GI50,[23],17.9 µM
same,GI50,[24],22 µM
same,GI50,[25],18.1 µM
same,GI50,[26],15.1 µM
same,GI50,[27],28.9 µM
same,GI50,[28],34.2 µM
same,GI50,[29],18.2 µM
same,GI50,[30],20.3 µM
same,GI50,[31],16 µM
same,GI50,[32],25.2 µM
same,GI50,[33],18.7 µM
same,GI50,[34],38.6 µM
same,GI50,[35],21.4 µM
same,GI50,[36],26.2 µM
same,GI50,[37],12.6 to 21.2 µM
same,GI50,[38],19.3 µM
same,GI50,[39],16.1 µM
same,GI50,[40],7.14 µM
same,GI50,[41],6.05 µM
same,GI50,[42],0.58 µM
same,GI50,[43],15 µM
same,GI50,[44],25 µM
